This note sets out measurements from patent US11958865B1, “Leucine-rich repeat kinase 2 (LRRK2) inhibitors” (H. Lundbeck A/S, priority 2022, dated 2024).

Series [1] is described as follows: Fraction unbound in rat plasma and brain homogenate by equilibrium dialysis. It counts as in vitro ADME, male Sprague-Dawley rat. Conditions: 1 μM, equilibrium dialysis 5 h at 37° C.; for fubrain (% free): rat brain homogenate; for fuplasma (% free): rat plasma. The procedure:
The fraction of unbound compound in male Sprague-Dawley rat plasma (fuplasma) and brain homogenate (fubrain) were determined by equilibrium dialysis using 96-well HTD-dialysis plates with dialysis membranes (molecular weight cut off 12-14 KDa). One side of the HTD-dialysis plate was loaded with matrix (plasma or brain homogenate) and the other side with buffer (100 mM sodium phosphate buffer, pH 7.4). Test compounds were dissolved in DMSO then spiked (5 μL of 0.2 mM) into blank (995 μL) plasma or diluted brain homogenate (1:4 ratio in phosphate buffer) giving a final nominal concentration 1 μM (≤0.5% DMSO). The matrices were loaded into respective chambers and equilibrated against phosphate buffer for 5 h at 37° C. (in a humidified air incubator with 5% CO2 with shaking). Samples from both chambers (buffer and plasma or brain homogenate) were aliquoted to fresh 96-well polypropylene plates then matrix matched using an equal volume of opposite blank matrix before extraction with cold solvent (3 volumes acetonitrile) containing an appropriate bioanalytical internal standard. After centrifugation (20 min, 3200 g, 4° C.) the supernatants were diluted with appropriate volumes of water and compound concentrations were quantified by LC/MS-MS against matrix matched calibration standards. The fuplasma and fubrain were calculated according to equation 4 below.
[formula] Where [F] is the compound concentration on the buffer (receiver) side of the membrane; [T] is the compound concentration on the plasma or brain (donor) side of the membrane; D is the matrix dilution factor which is determined as D=4 for brain matrix and D=1 for plasma matrix in these assays.
(In equilibrium dialysis only unbound substance equilibrates across the membrane.)

A short description of series [2]: Hepatic microsomal intrinsic clearance assay. It counts as in vitro ADME. The conditions noted are these: liver microsomes 0.5 mg/mL, 1 μM, NADPH, 1 hour at 37° C., LLOQ 0.36 L/h/kg; for CLint scaled at 1 μM: pooled liver microsomes, pH 7.4. The procedure: Compounds (final concentration 1 μM, 1% organic) of the invention were incubated for 1 hour at 37° C., with shaking, in phosphate buffer (pH 7.4) containing commercially sourced pooled liver microsomes (final concentration 0.5 mg/mL). […] At designated time points (0, 5, 10, 20, 30 and 60 minutes) ice-cold acetonitrile containing internal standard (300 μL) was added to an incubation well to stop the reaction then mixed and centrifuged (3220 g for 20 minutes at 4° C.). Supernatant was diluted (1:4) with deionized water then analyzed by LC-MS/MS.

A short description of series [3]: Hepatocyte intrinsic clearance assay. It counts as in vitro ADME, Human. The conditions noted are these: pooled donor, cryopreserved hepatocytes, pH 7.4; human hepatocytes 1×10^6/mL; 0.05 μM; 2 h at 37° C. The procedure:
Test compounds (final concentration 0.05 μM, 0.05% organic) were incubated for 2 h at 37° C., with shaking, in supplemented Leibovitz L-15 media (pH 7.4) containing commercially sourced, pooled donor, cryopreserved hepatocytes (final concentration 1×10^6 hepatocytes/mL). The CLint reactions (350 μL) were initiated by addition of test compound. Aliquots (25 μL) were taken at 1, 5, 10, 15, 30, 60, 90 and 120 minutes and then protein crashed with ice-cold acetonitrile containing internal standard (150 μL) then centrifuged (1960 g for 20 minutes at 4° C.). Supernatant was diluted (1:4) with deionized water then analyzed by liquid chromatography (LC)-tandem mass spectrometry (MS/MS).

The nature of series [4]: Rat brain disposition after oral gavage. It counts as in vivo, male Sprague-Dawley rats. Conditions: male, Sprague-Dawley, oral 5 mg/kg, mean ± stdev. The procedure: Brain disposition was evaluated in male Sprague-Dawley rats (n=3, standard body weight). Briefly, test compound was formulated as a simple suspension (0.5% HPMC in water) then administered by oral gavage (10 mg/kg, 10 mL/kg or 5 mg/kg, 10 mL/kg). At the designated time point (0.5 or 1 h post dose) rats were sacrificed and terminal blood and brain samples taken. Isolated plasma and brain homogenates were extracted by standard protein precipitation in acetonitrile, containing internal standard. Diluted extracts were analyzed by liquid-chromatography coupled with tandem mass spectrometry detection (LC-MS/MS) using a bioanalytical method. Concentrations of test compound in plasma and brain were quantified against matrix matched calibration standards. The total plasma and brain concentration time data are presented in Table 4 alongside the calculated brain Kp (total brain concentration:total plasma concentration ratio).
The total brain-to-plasma partition coefficient (brain Kp) is given by the ratio of the total brain concentration and total plasma concentration of the compound according to the equation below: […]
Based on the measured rat fuplasma and fubrain values and the brain Kp the unbound brain-to-plasma partition coefficient (brain Kp,uu for each compound was calculated. The Kp,uu parameter describes the extent of brain penetration for each compound, i.e. the parameter gives a direct quantitative description of how the blood-brain barrier (BBB) handles the compounds regarding passive transport and active influx/efflux. The brain Kp,uu is given by the equation below: […]

Setting [5] is: brain, n=3, read-out: Total brain concentration.
Where [6] appears, read: plasma, n=3, read-out: Total plasma concentration.

Read-outs that look alike come from different tables or passages of the source.

Broadly, the CLint scaled is the capacity of the preparation to metabolise the compound, expressed as a volume cleared per time. Read a low CLint scaled as greater metabolic stability. On to `COc1ncc(F)cc1-n1nc2c(c1C)Nc1ncc3c(Cl)nn(c3n1)CCCO2` [Example 6, 8-Chloro-2-(5-fluoro-2-methoxypyridin-3-yl)-3-methyl-2,4,12,13-tetrahydro-11H-5,7-(azenometheno)dipyrazolo[3,4-b:5′,1′-g][1]oxa[4,6,8]triazacycloundecine], for which, in series [1], the “fubrain (% free)” value is given as 3.7 % free and the “fuplasma (% free)” value stood at 8.9 % free. The CLint scaled at 1 μM in series [2] was 21 mL/min/kg. The same compound gave a CLint scaled at 0.05 μM in series [3] of 14.3 mL/min/kg. In series [4] (brain, n=3), this compound registered a Kp at 1 h of 3 ± 0.06 and a Kp uu at 1 h of 1.22 ± 0.03. In series [4] (setting [5]), the concentration at 1 h came to 205 ± 21 ng/g. Also, the concentration at 1 h in series [4] (setting [6]) was 69 ± 7 ng/mL.
Regarding `Cc1ncccc1-n1nc2c(c1C)Nc1ncc3c(Cl)nn(c3n1)CCCO2` [Example 3, 8-Chloro-3-methyl-2-(2-methylpyridin-3-yl)-2,4,12,13-tetrahydro-11H-5,7-(azenometheno)dipyrazolo[3,4-b:5′,1′-g][1]oxa[4,6,8]triazacycloundecine], in series [1], the “fubrain (% free)” value worked out at 10.4 % free and the “fuplasma (% free)” value was found to be 22.6 % free. The same compound showed a CLint scaled at 1 μM in series [2] of 7.17 mL/min/kg. Further, the CLint scaled at 0.05 μM in series [3] is 6 mL/min/kg. Also, in series [4] (brain, 0.5 h, n=3), the Kp at 0.5 h was found to be 1.1 ± 0.1 and the Kp uu at 0.5 h came out at 0.52 ± 0.06. Moreover, in series [4] (brain, 0.5 h, n=3, read-out: Total brain concentration), the concentration at 0.5 h stood at 414 ± 97 ng/g. Further, the concentration at 0.5 h in series [4] (plasma, 0.5 h, n=3, read-out: Total plasma concentration) was determined as 362 ± 38 ng/mL.
With `Cc1cnc(C)c(-n2nc3c(c2C)Nc2ncc4c(Cl)nn(c4n2)CCCO3)c1` [Example 11, 8-Chloro-2-(2,5-dimethylpyridin-3-yl)-3-methyl-2,4,12,13-tetrahydro-11H-5,7-(azenometheno)dipyrazolo[3,4-b:5′,1′-g][1]oxa[4,6,8]triazacycloundecine], in series [1], the “fubrain (% free)” value came out at 5.3 % free and the “fuplasma (% free)” value came out at 11.7 % free. Besides, in series [2], the CLint scaled at 1 μM was 12.3 mL/min/kg. In series [3], the CLint scaled at 0.05 μM was less than 4 mL/min/kg. In series [4] (brain, n=3), this compound showed a Kp at 1 h of 1.1 ± 0.2 and a Kp uu at 1 h of 0.51 ± 0.07. For the same compound, in series [4] (setting [5]), the concentration at 1 h stood at 649 ± 99 ng/g. In addition, the concentration at 1 h in series [4] (setting [6]) came out at 586 ± 82 ng/mL.
Compound `[2H]C([2H])([2H])Oc1ncc(F)cc1-n1nc2c(c1C)Nc1ncc3c(Cl)nn(c3n1)CCCO2` (single isomer, unassigned) [Example 23, 8-Chloro-2-(5-fluoro-2-(methoxy-d3)pyridin-3-yl)-3-methyl-2,4,12,13-tetrahydro-11H-5,7-(azenometheno)dipyrazolo[3,4-b:5′,1′-g][1]oxa[4,6,8]triazacycloundecine] showed a CLint scaled at 1 μM in series [2] of 23.8 mL/min/kg. In addition, the CLint scaled at 0.05 μM in series [3] was 16.2 mL/min/kg.
For the compound `[2H]C([2H])([2H])c1c2c(nn1-c1cc(F)cnc1OC)OCCCn1nc(Cl)c3cnc(nc31)N2` (single isomer, unassigned) [Example 29, 8-Chloro-2-(5-fluoro-2-methoxypyridin-3-yl)-3-(methyl-d3)-2,4,12,13-tetrahydro-11H-5,7-(azenometheno)dipyrazolo[3,4-b:5′,1′-g][1]oxa[4,6,8]triazacycloundecine], in series [2], the CLint scaled at 1 μM is 21.3 mL/min/kg. In series [3], the CLint scaled at 0.05 μM is 15.5 mL/min/kg.
Regarding `Cc1ncc(F)cc1-n1nc2c(c1C)Nc1ncc3c(Cl)nn(c3n1)CCCO2` [Example 10, 8-Chloro-2-(5-fluoro-2-methylpyridin-3-yl)-3-methyl-2,4,12,13-tetrahydro-11H-5,7-(azenometheno)dipyrazolo[3,4-b:5′,1′-g][1]oxa[4,6,8]triazacycloundecine], in series [1], the “fubrain (% free)” value turned out to be 9.3 % free and the “fuplasma (% free)” value amounted to 22.7 % free. The compound further had an intrinsic clearance (CLint scaled) at 1 μM in series [2] of 20 mL/min/kg. The intrinsic metabolic clearance (CLint scaled) at 0.05 μM in series [3] was 5.5 mL/min/kg. In series [4] (brain, n=3), the Kp at 1 h is 2.2 ± 0.3 and the Kp uu at 1 h amounted to 0.89 ± 0.14. The concentration at 1 h in series [4] (setting [5]) was found to be 524 ± 79 ng/g. The concentration at 1 h in series [4] (setting [6]) was found to be 246 ± 61 ng/mL.
The compound `[2H]C([2H])([2H])c1c2c(nn1-c1ccc(C)nc1C)OCCCn1nc(Cl)c3cnc(nc31)N2` [Example 25, 8-Chloro-2-(2,6-dimethylpyridin-3-yl)-3-(methyl-d3)-2,4,12,13-tetrahydro-11H-5,7-(azenometheno)dipyrazolo[3,4-b:5′,1′-g][1]oxa[4,6,8]triazacycloundecine] came in with a CLint scaled at 1 μM in series [2] of less than 6 mL/min/kg. Also, the CLint scaled at 0.05 μM in series [3] is 19.8 mL/min/kg.
Take `Cc1ccc(-n2nc3c(c2C)Nc2ncc4c(Cl)nn(c4n2)CCCO3)c(C)n1` [Example 9, 8-Chloro-2-(2,6-dimethylpyridin-3-yl)-3-methyl-2,4,12,13-tetrahydro-11H-5,7-(azenometheno)dipyrazolo[3,4-b:5′,1′-g][1]oxa[4,6,8]triazacycloundecine]: in series [1], the “fubrain (% free)” value amounted to 7.4 % free and the “fuplasma (% free)” value came to 10.2 % free. Moreover, the “Hepatic microsomal CLint (L/h/kg)” value in series [2] is given as “BQL**”. Also, the intrinsic clearance (CLint scaled) at 0.05 μM in series [3] was 16.2 mL/min/kg. In series [4] (brain, n=3), the Kp at 1 h was found to be 1.4 ± 0.2 and the Kp uu at 1 h amounted to 1 ± 0.12. Further, the concentration at 1 h in series [4] (setting [5]) was 906 ± 87 ng/g. The concentration at 1 h in series [4] (setting [6]) was determined as 664 ± 47 ng/mL.
